The values below come from ChEMBL document CHEMBL3860083, “Tautomeric and non-tautomeric N-substituted 2-iminobenzimidazolines as new lead compounds for the design of anti-influenza drugs: An in vitro study” (Bioorg Med Chem, 2016).

Data set [1] is described as follows: Cytotoxicity against MDCK cells assessed as increase in cell death after 48 hrs by MTT assay. The data set is classed as toxicity, cell-based, Canis lupus familiaris. The settings on record: dog. (In general: Tetrazolium dyes change colour on reduction, which living cells bring about.)
Data set [2] in a line: Antiviral activity against Influenza A virus (A/California/07/09(H1N1))pdm09 infected in MDCK cells assessed as decrease in virus production preincubated for 1 hr with cells followed by viral infection measured after 24 hrs by hemagglutination assay. It is filed as functional, cell-based, Influenza A virus (A/California/07/2009(H1N1)).
Data set [3] is described as follows: Selectivity index, ratio of CC50 for MDCK cells to IC50 for Influenza A virus (A/California/07/09(H1N1)) pdm09. It is filed as functional.
The test system of another data set is Lassa virus. Description: Antiviral activity against Lassa virus. The data set is classed as functional. The settings on record: Mammarenavirus lassaense.
The subject of another data set is Junin virus. The experiment in a line: Antiviral activity against Junin virus. The settings on record: Mammarenavirus juninense. It is filed as functional.
The subject of another data set is Machupo mammarenavirus. Description: Antiviral activity against Machupo virus. As to conditions: Mammarenavirus machupoense. The data set is classed as functional.
Another data set has as its system Guanarito virus. The experiment in a line: Antiviral activity against Guanarito virus. The settings on record: Mammarenavirus guanaritoense. It is filed as functional.
The subject of the next data set is Sabia virus. The experiment in a line: Antiviral activity against Sabia virus. The data set is classed as functional.

With `O=C(Nc1nc2ccccc2n1CCOc1ccccc1)c1ccco1`, the CC50 at 48 h in data set [1] was determined as 2160 µM. Also, in data set [2], the IC50 worked out at 42.9 µM. Further, the “Ratio CC50/IC50” value in data set [3] is 50.
Turning to `O=C(Nc1nc2ccccc2n1CCOc1ccc(Cl)cc1)c1ccco1`, the CC50 at 48 h in data set [1] is 346 µM. The IC50 in data set [2] came out at 57.6 µM. The “Ratio CC50/IC50” value in data set [3] stood at 6.
For the compound `S=C(Nc1ccccc1)Nc1nc2ccccc2n1CCOc1ccc(Br)cc1`, the CC50 at 48 h in data set [1] worked out at 20.3 µM. Also, the IC50 in data set [2] is more than 21.4 µM. For the same compound, the “Ratio CC50/IC50” value in data set [3] is reported as less than 1.
Turning to `S=C(Nc1ccccc1)Nc1nc2ccccc2n1CCOc1ccccc1`, the CC50 at 48 h in data set [1] is 25.8 µM. In addition, in data set [2], the IC50 stood at 25.8 µM. Further, in data set [3], the “Ratio CC50/IC50” value came out at 1.
Take `Cl.N=c1n(Cc2ccc(F)cc2)c2ccccc2n1Cc1ccc(Cl)c(Cl)c1`: the CC50 at 48 h in data set [1] was found to be 21.8 µM. For the same compound, in data set [2], the IC50 is 4.5 µM. Also, the “Ratio CC50/IC50” value in data set [3] was 5.
Turning to `O=C(/N=c1\[nH]c2ccccc2n1CCOc1ccc(F)cc1)c1ccc(Cl)cc1`, the cytotoxic concentration (CC50) at 48 h in data set [1] was more than 732 µM. For the same compound, the concentration for half-maximal inhibition (IC50) in data set [2] was 112 µM. For the same compound, the “Ratio CC50/IC50” value in data set [3] is recorded as more than 7.
Taken in the same sequence, the figures for `Br.C=CCn1c(=N)n(CCOc2ccc(C(C)(C)C)cc2)c2ccccc21` were 12.8 µM, 1.6 µM and 8.
Consider `CC(C)(C)c1ccc(OCCn2c(=N)n(CC(N)=O)c3ccccc32)cc1.Cl`, for which the CC50 at 48 h in data set [1] turned out to be 151 µM. Also, the IC50 in data set [2] was found to be 27.5 µM. For the same compound, the “Ratio CC50/IC50” value in data set [3] stood at 5.
For `O=C(/N=c1\[nH]c2ccccc2n1CCOc1ccc(F)cc1)c1ccc([N+](=O)[O-])cc1`, the CC50 at 48 h in data set [1] was more than 2550 µM. Further, in data set [2], the IC50 was 543 µM. The “Ratio CC50/IC50” value in data set [3] was more than 5.
`Cl.N=c1n(CCO)c2ccccc2n1Cc1ccc(Cl)c(Cl)c1`: the CC50 at 48 h in data set [1] was found to be 202 µM. Also, in data set [2], the IC50 came to 2.4 µM. For the same compound, the “Ratio CC50/IC50” value in data set [3] came out at 83.
In the case of `O=C(/N=c1\[nH]c2ccccc2n1CCOc1cccc(Cl)c1)c1ccco1`, the CC50 at 48 h in data set [1] turned out to be 820 µM. For the same compound, the 50% inhibitory concentration (IC50) in data set [2] is 13.1 µM. Moreover, the “Ratio CC50/IC50” value in data set [3] was 63.
With `Cl.N=c1n(CC(N)=O)c2ccccc2n1Cc1ccc(Cl)c(Cl)c1`, the CC50 at 48 h in data set [1] came out at 196 µM. Besides, the IC50 in data set [2] is 7 µM. The “Ratio CC50/IC50” value in data set [3] is given as 28.
Take `O=C(/N=c1\[nH]c2ccccc2n1CCOc1ccc(Cl)cc1)c1cccs1`: the CC50 at 48 h in data set [1] was determined as 2240 µM. For the same compound, the half-maximal inhibitory concentration (IC50) in data set [2] stood at 297 µM. Moreover, the “Ratio CC50/IC50” value in data set [3] is listed as 8.
Regarding `Cl.N=c1n(CO)c2ccccc2n1CCOc1ccc(Cl)cc1`, the 50% cytotoxic concentration (CC50) at 48 h in data set [1] was 40.8 µM. Further, the 50% inhibitory concentration (IC50) in data set [2] was 4.6 µM. Besides, in data set [3], the “Ratio CC50/IC50” value came to 9.
Regarding `Cc1ccccc1OCCn1/c(=N/C(=O)c2cccs2)[nH]c2ccccc21`, the cytotoxic concentration (CC50) at 48 h in data set [1] is 159 µM. Moreover, the half-inhibitory concentration (IC50) in data set [2] was 33.2 µM. Besides, in data set [3], the “Ratio CC50/IC50” value was 5.
For `O=C(/N=c1\[nH]c2ccccc2n1CCOc1ccc(Br)cc1)c1cccs1`, in data set [1], the CC50 at 48 h was more than 2260 µM. The IC50 in data set [2] was 317 µM. Besides, the “Ratio CC50/IC50” value in data set [3] was more than 7.
For `Cl.N=c1n(CCOc2ccc(F)cc2)c2ccccc2n1CC(N)=O`, the CC50 at 48 h in data set [1] came out at 1260 µM. Also, in data set [2], the IC50 came out at 54.8 µM. Moreover, the “Ratio CC50/IC50” value in data set [3] turned out to be 23.
On to `COc1ccc(OCCn2/c(=N/C(=O)c3cccs3)[nH]c3ccccc32)cc1`, for which, in data set [1], the CC50 at 48 h was more than 2540 µM. Moreover, the IC50 in data set [2] worked out at 450 µM. In addition, the “Ratio CC50/IC50” value in data set [3] was more than 6.
Regarding `COc1ccc(-n2cnc3cc(NCc4ccc(C)cc4)ccc32)cc1`, the concentration for half-maximal inhibition (IC50) in the data set on Lassa virus is 0.0016 µM; in the data set with Junin virus it was 0.0002 to 0.012 µM; in the data set with Machupo mammarenavirus, 0.0002 to 0.012 µM; in the data set on Guanarito virus, 0.0002 to 0.012 µM; in the data set with Sabia virus, 0.0002 to 0.012 µM.
For the compound `Br.Cc1ccc(OCCn2c(=N)n(Cc3ccc(Cl)c(Cl)c3)c3ccccc32)cc1`, the CC50 at 48 h in data set [1] came out at 13.2 µM. Moreover, the IC50 in data set [2] amounted to 0.6 µM. In addition, the “Ratio CC50/IC50” value in data set [3] is 11.
For `Br.C=CCn1c(=N)n(CCCOc2ccc(F)cc2)c2ccccc21`, the CC50 at 48 h in data set [1] was 80.1 µM. Further, the IC50 in data set [2] came to 9.9 µM. In data set [3], the “Ratio CC50/IC50” value turned out to be 8.
As to `CC(C)(C)c1ccc(C(=O)/N=c2\[nH]c3ccccc3n2CCOc2ccc(Br)cc2)cc1`, the CC50 at 48 h in data set [1] was 2030 µM. For the same compound, the IC50 in data set [2] turned out to be 37.4 µM. Moreover, in data set [3], the “Ratio CC50/IC50” value amounted to 54.
As to `Cc1ccc(OCCn2c(=N)n(CC(N)=O)c3ccccc32)cc1.Cl`, in data set [1], the CC50 at 48 h is 309 µM. In addition, the IC50 in data set [2] stood at 35.8 µM. The “Ratio CC50/IC50” value in data set [3] came out at 9.

Broadly, the CC50 is the concentration giving 50% cytotoxicity. Broadly, the IC50 is the concentration that gives 50% inhibition.
